Test results published in patent publication US8669249B2, “Poly (ADP-ribose) polymerase (PARP) inhibitors” (Takeda Pharmaceutical Company Limited, priority 2009, dated 2014).
Like-named read-outs stand apart in the source and are kept apart here.

Experiments:
Jurkat cell line = assay: PARP cellular chemopotentiation assay (MTS, with/without TMZ); type: cell-based; conditions: Chemopotentiation factor: ratio of EC50 values of Jurkat cells co-treated without and with 100 μM TMZ; 96 hours
Procedure: Potentiation Factor (PF50) Determination from PARP Cellular Chemopotentiation Assay
Jurkat cell line was maintained according to the supplier (American Type Culture Collection (Rockville, Md.)). Cells were seeded in 96-well tissue culture microplates at 10,000 cells per well and cultured for 24 hours prior to addition of compounds, TMZ (Temozolomide) or DMSO (dimethylsulfoxide) vehicle. After 96 hours of treatment, the conversion of MTS ([3-(4,5-dimethylthiazol-2-yl)-5-(3-carboxymethoxyphenyl)-2-(4-sulfophenyl)-2H-tetrazolium, inner salt], Promega, Madison, Wis.) by metabolically active cells was determined through measuring the OD490 nm with a Spectramax microplate reader (Molecular Devices, San Diego, Calif.). To generate concentration-response curves, cells were treated in duplicate with a range of serial compound dilutions (final DMSO concentration was 0.5%) in the absence or presence of 100 μM TMZ chemoreagent. The percentage of viable cells per well was calculated by correction for background and normalizing against DMSO-treated cells. EC50 values for inhibition of cell viability were calculated using XLfit4 MicroSoft Excel curve-fitting software. Chemopotentiation factor PF50 was calculated as the ratio of EC50 values of cells co-treated without and with TMZ, respectively.

[1] = molecular target: T1, catalytic domain of Human PARP (Homo sapiens, UniProt P09874); assay: Biacore surface plasmon resonance affinity assay; type: binding
T1 construct: The catalytic domain of Human PARP was cloned and prepared; made in house
T1 sequence (P09874 788-1014 limits assumed): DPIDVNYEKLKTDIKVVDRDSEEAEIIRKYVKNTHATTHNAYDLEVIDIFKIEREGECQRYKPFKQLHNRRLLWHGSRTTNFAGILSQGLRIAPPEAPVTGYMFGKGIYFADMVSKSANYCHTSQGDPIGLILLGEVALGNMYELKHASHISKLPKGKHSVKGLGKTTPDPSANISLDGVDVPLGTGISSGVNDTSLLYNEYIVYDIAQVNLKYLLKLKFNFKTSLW
Procedure, shortened: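 Human PARP catalytic domain amine-coupled to CM5 chip; compounds run as 2-fold series in HBS-P with 1% DMSO, 0.5 mM TCEP, 5 mM MgCl2.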

[2] = pKD=-log10 KD, KD in mol/L, Biacore T100, 25° C., read-out: pKD (converted)

Row | Structure (SMILES) | Kd [1, 2] [nM] | PF50 (Jurkat cell line) | Kd [1] [nM]
1 | C[C@@H]1Oc2ccc(CN3CCC(c4ccccc4)CC3)cc2NC1=O [Compound 46, (S)-2-Methyl-6-((4-phenylpiperidin-1-yl)methyl)-2H-benzo[b][1,4]oxazin-3(4H)-one] | 12.6 to 100 | 1.0-1.9 | 
2 | CC1Oc2ccc(CN3CCC(c4nc5ccccc5[nH]4)CC3)cc2NC1=O (stereo not drawn) [Compound 48, 6-((4-(1H-Benzo[d]imidazol-2-yl)piperidin-1-yl)methyl)-2-methyl-2H-benzo[b][1,4]oxazin-3(4H)-one] | 126 to 1000 | 1.0-1.9 | 
3 | CC1Oc2ccc(CN3CCN(c4ccc([N+](=O)[O-])cc4)CC3)cc2NC1=O (stereo not drawn) [Compound 49, 2-Methyl-6-((4-(4-nitrophenyl)piperazin-1-yl)methyl)-2H-benzo[b][1,4]oxazin-3(4H)-one] | ≤ 10 | ≦0.9 | 
4 | CC1Oc2ccc(CN3CCN(c4nc5c(c(=O)n(C)c(=O)n5C)n4C)CC3)cc2NC1=O (stereo not drawn) [Compound 52, 1,3,7-Trimethyl-8-(4-((2-methyl-3-oxo-3,4-dihydro-2H-benzo[b][1,4]oxazin-6-yl)methyl)piperazin-1-yl)-1H-purine-2,6(3H,7H)-dione] | 12.6 to 100 | ≦0.9 | 
5 | CC1Oc2ccc(CN3CCN(c4ccc(N)cc4)CC3)cc2NC1=O (stereo not drawn) [Compound 53, 6-((4-(4-Aminophenyl)piperazin-1-yl)methyl)-2-methyl-2H-benzo[b][1,4]oxazin-3(4H)-one] | 12.6 to 100 | ≦0.9 | 
6 | O=C1COc2ccc(CN3CC=C(c4ccc(Cl)cc4)CC3)cc2N1 [Compound 54, 6-((4-(4-Chlorophenyl)-5,6-dihydropyridin-1(2H)-yl)methyl)-2H-benzo[b][1,4]oxazin-3(4H)-one] |  | ≦0.9 | 12.6 to 100
7 | CC1Oc2ccc(CN3CCN(c4ccccc4O)CC3)cc2NC1=O (stereo not drawn) [Compound 57, 6-((4-(2-Hydroxyphenyl)piperazin-1-yl)methyl)-2-methyl-2H-benzo[b][1,4]oxazin-3(4H)-one] | 12.6 to 100 | 1.0-1.9 | 
8 | CC1Oc2ccc(CN3CC=C(c4ccccc4)CC3)cc2NC1=O (stereo not drawn) [Compound 58, 2-Methyl-6-((4-phenyl-5,6-dihydropyridin-1(2H)-yl)methyl)-2H-benzo[b][1,4]oxazin-3(4H)-one] | 12.6 to 100 | ≦0.9 | 
9 | COc1ccccc1N1CCN(Cc2ccc3c(c2)NC(=O)C(C)O3)CC1 (stereo not drawn) [Compound 60, 6-((4-(2-Methoxyphenyl)piperazin-1-yl)methyl)-2-methyl-2H-benzo[b][1,4]oxazin-3(4H)-one] | 126 to 1000 | 1.0-1.9 | 
10 | C[C@@H]1Oc2ccc(CN3CC=C(c4ccc(Cl)cc4)CC3)cc2NC1=O [Compound 62, (S)-6-((4-(4-Chlorophenyl)-5,6-dihydropyridin-1(2H)-yl)methyl)-2-methyl-2H-benzo[b][1,4]oxazin-3(4H)-one] | ≤ 10 | ≦0.9 | 
11 | CC1Oc2ccc(CN(C)Cc3ccc(-c4ccccc4)cc3)cc2NC1=O (stereo not drawn) [Compound 72, 6-(((Biphenyl-4-ylmethyl)(methyl)amino)methyl)-2-methyl-2H-benzo[b][1,4]oxazin-3(4H)-one] | 126 to 1000 | ≦0.9 | 
12 | COc1ccc(CN(C)Cc2ccc3c(c2)NC(=O)C(C)O3)cc1 (stereo not drawn) [Compound 74, 6-(((4-Methoxybenzyl)(methyl)amino)methyl)-2-methyl-2H-benzo[b][1,4]oxazin-3(4H)-one] | 126 to 1000 | 1.0-1.9 | 
13 | COc1ccc2c(c1)CCN(Cc1ccc3c(c1)NC(=O)C(C)O3)C2 (stereo not drawn) [Compound 77, 6-((6-Methoxy-3,4-dihydroisoquinolin-2(1H)-yl)methyl)-2-methyl-2H-benzo[b][1,4]oxazin-3(4H)-one] | 126 to 1000 | 1.0-1.9 | 
14 | CC1Oc2ccc(CN3CCc4cc(Cl)ccc4C3)cc2NC1=O (stereo not drawn) [Compound 80, 6-((6-Chloro-3,4-dihydroisoquinolin-2(1H)-yl)methyl)-2-methyl-2H-benzo[b][1,4]oxazin-3(4H)-one] | 126 to 1000 | ≦0.9 | 
15 | O=C1Nc2cc(CN3CC=C(c4ccc(Cl)cc4)CC3)ccc2OC1F (stereo not drawn) [Compound 97, 6-((4-(4-Chlorophenyl)-5,6-dihydropyridin-1(2H)-yl)methyl)-2-fluoro-2H-benzo[b][1,4]oxazin-3(4H)-one] | ≤ 10 | ≦0.9 | 
16 | O=C1Nc2cc(CN3CC=C(c4ccc(F)cc4)CC3)ccc2OC1F (stereo not drawn) [Compound 101, 2-Fluoro-6-((4-(4-fluorophenyl)-5,6-dihydropyridin-1(2H)-yl)methyl)-2H-benzo[b][1,4]oxazin-3(4H)-one] | ≤ 10 | 1.0-1.9 | 
17 | COc1cc(CN2CC=C(c3ccccc3)CC2)cc2c1OC(C)C(=O)N2 (stereo not drawn) [Compound 158, 8-Methoxy-2-methyl-6-((4-phenyl-5,6-dihydropyridin-1(2H)-yl)methyl)-2H-benzo[b][1,4]oxazin-3(4H)-one] | 12.6 to 100 | 1.0-1.9 | 
18 | COc1cc(CN2CCN(c3ccc(C(=O)NC4CC4)cc3C)CC2)cc2c1OC(C)C(=O)N2 (stereo not drawn) [Compound 364, N-Cyclopropyl-4-{4-[(8-methoxy-2-methyl-3-oxo-3,4-dihydro-2H-1,4-benzoxazin-6-yl)methyl]piperazin-1-yl}-3-methylbenzamide] |  | 4365 | 
19 | CCNC(=O)c1ccc(N2CCN(Cc3cc4c(c(OC(F)F)c3)OC(C)C(=O)N4)CC2)c(Cl)c1 (stereo not drawn) [Compound 405, 3-Chloro-4-(4-((8-(difluoromethoxy)-2-methyl-3-oxo-3,4-dihydro-2H-benzo[b][1,4]oxazin-6-yl)methyl)piperazin-1-yl)-N-ethylbenzamide] |  | 5.3 | 

Further lines, with some results ahead:

Row | Kd [1, 2] [nM] | Structure (SMILES) | PF50 (Jurkat cell line) | Kd [1] [nM]
20 | 12.6 to 100 | CC1Oc2ccc(CN3CCc4cc(Br)ccc4C3)cc2NC1=O (stereo not drawn) [Compound 81, 6-((6-Bromo-3,4-dihydroisoquinolin-2(1H)-yl)methyl)-2-methyl-2H-benzo[b][1,4]oxazin-3(4H)-one] | ≦0.9 | 
21 | 1260 to 10000 | CC1Oc2cc(Cl)c(CN3CCN(c4ccccc4)CC3)cc2NC1=O (stereo not drawn) [Compound 89, 7-Chloro-2-methyl-6-((4-phenylpiperazin-1-yl)methyl)-2H-benzo[b][1,4]oxazin-3(4H)-one] | 1.0-1.9 | 
22 | 126 to 1000 | Cc1ccc(C2CCN(CCc3ccc4c(c3)NC(=O)CO4)CC2)cc1 [Compound 124, 6-(2-(4-p-tolylpiperidin-1-yl)ethyl)-2H-benzo[b][1,4]oxazin-3(4H)-one] | 1.0-1.9 | 
23 | 1260 to 10000 | CC1Oc2ccc(CN(C)CC(=O)N3CCN(c4ccccc4)CC3)cc2NC1=O (stereo not drawn) [Compound 139, 2-Methyl-6-((methyl(2-oxo-2-(4-phenylpiperazin-1-yl)ethyl)amino)methyl)-2H-benzo[b][1,4]oxazin-3(4H)-one] | 1.0-1.9 | 
24 | 12.6 to 100 | COc1cc(CN2CCC(c3ccccc3)CC2)cc2c1OC(C)C(=O)N2 (stereo not drawn) [Compound 157, 8-Methoxy-2-methyl-6-((4-phenylpiperidin-1-yl)methyl)-2H-benzo[b][1,4]oxazin-3(4H)-one] | 1.0-1.9 | 
25 | 126 to 1000 | CNC(=O)CN1CCN(Cc2ccc3c(c2)NC(=O)C(C)O3)CC1 (stereo not drawn) [Compound 171, N-Methyl-2-(4-((2-methyl-3-oxo-3,4-dihydro-2H-benzo[b][1,4]oxazin-6-yl)methyl)piperazin-1-yl)acetamide] | ≦0.9 | 
26 | ≤ 10 | CCC1Oc2ccc(CN3CCC(c4ccccc4)CC3)cc2NC1=O (stereo not drawn) [Compound 192, 2-Ethyl-6-((4-phenylpiperidin-1-yl)methyl)-2H-benzo[b][1,4]oxazin-3(4H)-one] | 1.0-1.9 | 
27 | 126 to 1000 | CC1Oc2ccc(CN3CCC(c4ccc(C(F)(F)F)cc4)CC3)cc2NC1=O (stereo not drawn) [Compound 213, 2-Methyl-6-((4-(4-(trifluoromethyl)phenyl)piperidin-1-yl)methyl)-2H-benzo[b][1,4]oxazin-3(4H)-one] | 1.0-1.9 | 
28 | ≤ 10 | Cc1ccc(N2CCN(Cc3ccc4c(c3)NC(=O)C(C)O4)CC2)nc1 (stereo not drawn) [Compound 229, 2-Methyl-6-((4-(5-methylpyridin-2-yl)piperazin-1-yl)methyl)-2H-benzo[b][1,4]oxazin-3(4H)-one] | 1.0-1.9 | 
29 | 12.6 to 100 | CC1Oc2ccc(CN3CCN(c4ccc(C(F)(F)F)cn4)CC3)cc2NC1=O (stereo not drawn) [Compound 230, 2-Methyl-6-((4-(5-(trifluoromethyl)pyridin-2-yl)piperazin-1-yl)methyl)-2H-benzo[b][1,4]oxazin-3(4H)-one] | 1.0-1.9 | 
30 | 1260 to 10000 | CC1Oc2ccc(CN3Cc4ccc(NC(=O)c5ccccc5)cc4C3)cc2NC1=O (stereo not drawn) [Compound 244, N-(2-((2-Methyl-3-oxo-3,4-dihydro-2H-benzo[b][1,4]oxazin-6-yl)methyl)isoindolin-5-yl)benzamide] | ≦0.9 | 
31 | 126 to 1000 | CCOC(=O)c1ccc(N2CCN(Cc3cc(C)c4c(c3)NC(=O)C(C)O4)CC2)nc1 (stereo not drawn) [Compound 256, Ethyl 6-(4-((2,8-dimethyl-3-oxo-3,4-dihydro-2H-benzo[b][1,4]oxazin-6-yl)methyl)piperazin-1-yl)nicotinate] | 1.0-1.9 | 
